The numbers were not newly measured in PMC8452925, “Differential Modulation of the Voltage-Gated Na^+ Channel 1.6 by Peptides Derived From Fibroblast Growth Factor 14” (Frontiers in Molecular Biosciences, 2021), which cites them from elsewhere.

In one data set the target is T1, FGF14:Nav1.6 complex (Homo sapiens, UniProt Q92915).
T1 construct: expressed in transfected cells
T1 sequence (Q92915 1-252 isoform Q92915-2): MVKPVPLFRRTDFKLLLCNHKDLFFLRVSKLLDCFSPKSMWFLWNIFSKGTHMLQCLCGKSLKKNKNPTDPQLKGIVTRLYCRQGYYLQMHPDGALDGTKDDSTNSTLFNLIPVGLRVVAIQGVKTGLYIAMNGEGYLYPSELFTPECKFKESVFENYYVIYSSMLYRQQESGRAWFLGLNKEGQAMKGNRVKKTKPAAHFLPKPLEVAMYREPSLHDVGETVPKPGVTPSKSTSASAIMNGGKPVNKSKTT
The settings on record: ref Singh et al., 2020. An excerpt: (§1) To guide drug discovery efforts targeting the PPI interface between FGF14 and the CTD of Nav1.6, we previously developed and interrogated a homology model of the PPI interface to identify putative clusters of amino acids central to assembly of the complex ([Ali et al., 2014], [2016]). These investigations identified the Phe-Leu-Pro-Lys (FLPK) and Pro-Leu-Glu-Val (PLEV) motifs on the β12 sheet of FGF14, and the Glu-Tyr-Tyr-Val (EYYV) motif on the β8-β9 loop of FGF14, as being putatively essential for FGF14:Nav1.6 complex assembly ([Ali et al., 2014], [2016]). To investigate if short peptides de ...

The subject of a further data set is MSNs of the NAc. To be noted: ref Singh et al., 2020.
Excerpt: as §1

The test system of data set [1] is human Nav1.6 with FGF14-GFP. The settings on record: ref Singh et al., 2020.
Excerpt: as §1

In data set [2] the test system is FGF14^Y158A:Nav1.6 complex. To be noted: 50 µM, LCA, ref Singh et al., 2020. Here is the method: In our previous study ([Singh et al., 2020]), we pharmacologically evaluated all three tetrapeptides at a single concentration of 50 µM using the LCA. […] For example, in the FGF14^V160A condition, all three peptides lost activity, whereas in the FGF14^Y158A condition, FLPK retaine ...

Turning to “Phe-Leu-Pro-Lys [FLPK, tetrapeptide from the β12 sheet of FGF14, previously evaluated (Singh et al., 2020)]”, at FGF14:Nav1.6 complex, the “Effect on FGF14:Nav1.6 complex assembly (in words)” value was “inhibited FGF14:Nav1.6 complex assembly”. Also, the “Effect on neuronal excitability (in words)” value with MSNs of the NAc is on record as “affected neuronal excitability of MSNs of the NAc”. Further, in data set [1], the “Effect on FGF14-mediated regulation of Nav1.6 channel activity (in words)” value is reported as “reversed FGF14-mediated regulatory effects on Nav1.6 channel activity”. In data set [2], the “Effect on complex assembly with FGF14^Y158A (in words)” value is on record as “retained its inhibitory effects on FGF14:Nav1.6 complex assembly”.
